# According to patent US5229381A, “Substituted azetidinones as anti-inflammatory and antidegenerative agents” (Merck & Co., Inc., priority 1991, dated 1993):
# Biological target: T1, human polymorphonuclear leukocyte elastase (Homo sapiens, UniProt P08246)
# T1 construct: Crude extract of human polymorphonuclear leukocytes (PMN) containing elastase activity; endogenous in cells; host or cells: human polymorphonuclear leukocytes (crude extract)
# T1 sequence (P08246 30-247 limits assumed): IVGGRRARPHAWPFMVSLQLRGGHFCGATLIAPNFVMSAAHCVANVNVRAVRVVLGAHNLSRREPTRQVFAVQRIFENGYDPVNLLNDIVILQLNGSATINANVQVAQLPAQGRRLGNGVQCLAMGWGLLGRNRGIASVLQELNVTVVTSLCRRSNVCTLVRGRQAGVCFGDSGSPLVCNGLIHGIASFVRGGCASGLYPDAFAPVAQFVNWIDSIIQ
# Assay: Inhibition of human polymorphonuclear leukocyte (granulocyte) elastase via hydrolysis of Boc-AAPAN or Boc-AAPVN
# Assay type: biochemical
# Conditions: Table I; 2 min after time zero; crude PMN extract, pH 7.5
# Method: Enzyme Assays for the Inhibition of Human Polymorphonuclear Leukocyte Elastase Via Hydrolysis of N-t-Boc-alanyl-alanyl-prolylalanine-p-nitroanilide (Boc-AAPAN) or N-t-Boc-alanyl-prolylvaline-p-nitroanilide (Boc-AAPVN) Reagent:
# 0.05M TES (N-tris[hydroxymethyl]methyl-2-amino-ethanesulfonic acid) Buffer, pH 7.5.
# 0.2 mM Boc-AAPAN or Boc-AAPVN.
# To prepare substrate, the solid was first dissolved in 10.0 ml DMSO. Buffer at pH 7.5 was then added to a final volume of 100 ml.
# Crude extract of human polymorphonuclear leukocytes (PMN) containing elastase activity.
# Inhibitors (azetidinones) to be tested dissolved in DMSO just before use.
# To 1.0 ml of 0.2 mM Boc-AAPAN in a cuvette, 0.01-0.1 ml of DMSO with or without inhibitor was added. After mixing, a measurement was taken at 410 mμ to detect any spontaneous hydrolysis due to presence of test compound. 0.05 Milliliters of PMN extract was then added and the ΔOD/min at 410 mμ was measured and recorded. Beckman model 35 spectrophotometer was used.
# Results were also expressed as Ki, the micromolar concentration of the inhibitor (μM) giving 50% of the control enzyme activity; or as ^k obs/I which is the second order rate constant in per mole per second for inactivation of the enzyme.
# The elastase activity in the crude PMN extract may vary from one preparation to another. A control of each new batch is run, and the volume added in the assay procedure is adjusted according to activity.
row,"ID50, effective dosage for 50% inhibition of the enzyme activity two minutes after time zero [mg/mL]",Compound
1,15.00,CCC1C(=O)NC1OC(C)=O (stereo not drawn) [Table I: H; C2 H5; OCOCH3; H]

# Same assay, conditions: Table I; read-out: Ki, concentration of the inhibitor giving 50% of the control enzyme activity
row,Compound,Ki [µM]
1,CC[C@H]1C(=O)N(C(C)=O)[C@@H]1Oc1ccc(C(=O)O)cc1 (relative stereo),3.4
2,CC[C@H]1C(=O)N(C(=O)NC)[C@@H]1Oc1ccc(C(=O)O)cc1 (relative stereo),16.5
3,CCC1C(=O)N(C(=O)c2ccccc2)C1C(C)=O (stereo not drawn) [Table I: H; C2 H5 (trans); COCH3; COPh],0.34

# Same assay, conditions: Table IV, (per mole per second)
row,"kobs/I, second order rate constant of inactivation of the enzyme [M⁻¹ s⁻¹]",Compound
1,1446,"CCCC1(CCC)C(=O)N(C(=O)NC(C)c2ccccc2)C1Oc1ccc(C(=O)O)cc1 (single isomer, unassigned) [Table IV: C3 H7; C3 H7; O-(4-COOHPh); drawing 47 (lower Rf isomer)]"

# Same assay, conditions: pH 7.5, Table I; read-out: kobs/I, second order rate constant of inactivation of the enzyme
row,kinact/KI [M⁻¹ s⁻¹],Compound
1,1000,CCOC(=O)N1C(=O)[C@H](CC)[C@H]1OCC(=O)NCC(=O)O (relative stereo)

# Same assay, conditions: pH 7.5, Table II, (per mole per second); read-out: kobs/I, second order rate constant of inactivation of the enzyme
row,kinact/KI [M⁻¹ s⁻¹],Compound
1,5220,CCC1(CC)C(=O)N(C(=O)NCc2ccco2)C1Oc1ccc(C(=O)O)cc1 (stereo not drawn)
2,1900,CCC1(COC)C(=O)N(C(=O)NCc2ccccc2)C1Oc1ccc(C(=O)O)cc1 (stereo not drawn)
3,10900,CCC1(CC)C(=O)N(C(=O)NCCCCc2ccccc2)C1Oc1ccc(C(=O)O)cc1 (stereo not drawn)

# The next lines start with the compound.
row,Compound,kinact/KI [M⁻¹ s⁻¹]
1,CCC1(CC)C(=O)N(C(=O)NCc2ccccc2)C1Oc1ccc([C@H](NC(C)=O)C(=O)O)cc1 (stereo partly drawn) [Table II: C2 H5; C2 H5; drawing 39; CH2 Ph],2420
2,C=CCC1C(=O)N(C(=O)NCc2ccccc2)C1Oc1ccc(C(=O)O)cc1 (stereo not drawn),5400
3,CCC1(C)C(=O)N(C(=O)NCc2ccc(OC)c(OC)c2)C1Oc1ccc(C(=O)O)cc1 (stereo not drawn),11300
4,CCC1(CC)C(=O)N(C(=O)NCc2ccccc2)C1Oc1ccc(C(=O)NS(=O)(=O)c2ccc(Cl)cc2)cc1 (stereo not drawn) [Table II: C2 H5; C2 H5; drawing 38; CH2 Ph],6300
5,CCC1(COC)C(=O)N(C(=O)NCc2ccc3ccccc3c2)C1Oc1ccc(C(=O)O)cc1 (stereo not drawn),50000
6,CCC1(CC)C(=O)N(C(=O)NCc2ccc(F)cc2)C1Oc1ccc(C(=O)O)cc1 (stereo not drawn),2340
7,CCC1(C)C(=O)N(C(=O)NCc2cc(C)c(C(=O)O)c(C)c2)C1Oc1ccc(C(N)=O)cc1 (stereo not drawn),30000
8,CCC1(CC)C(=O)N(C(=O)NCc2ccc(C(=O)NS(=O)(=O)c3ccc(Cl)cc3)cc2)C1Oc1ccc(C(=O)O)cc1 (stereo not drawn),1730
9,CCC1(CC)C(=O)N(C(=O)NCc2ccccc2)C1Oc1ccc([N+](=O)[O-])cc1 (stereo not drawn),6850
10,CCC1C(=O)N(C(=O)Nc2ccc(C(=O)O)cc2)C1Oc1ccc(C(=O)O)cc1 (stereo not drawn),13600
11,CCC1(COC)C(=O)N(C(=O)NCc2ccc3c(c2)OCO3)C1Oc1ccc(C(=O)O)cc1 (stereo not drawn),17000
12,COC1C(=O)N(C(=O)NCc2ccc3ccccc3c2)C1c1ccc(C(=O)O)cc1 (stereo not drawn) [Table II: H; OMe; Ph-4-COOH; CH2-2-Naph],1340
13,CCC1(CC)C(=O)N(C(=O)NCc2ccccc2)C1Oc1ccc(C(=O)N2CCC[C@H]2C(=O)O)cc1 (stereo partly drawn) [Table II: C2 H5; C2 H5; drawing 37; CH2 Ph],2000

# Same assay, conditions: pH 7.5, Table III, (per mole per second); read-out: kobs/I, second order rate constant of inactivation of the enzyme
row,kinact/KI [M⁻¹ s⁻¹],Compound
1,6930,CCC1(CC)C(=O)N(C(=O)NCc2cccc(C)c2)C1Oc1ccc(C(=O)O)cc1 (stereo not drawn) [Table III: O-(4-COOHPh); CH2 Ph(3-CH3)]
2,818,CCC1(CC)C(=O)N(C(=O)NCc2ccccc2)C1OCC(O)CO (stereo not drawn) [Table III: O-glyceryl; CH2 Ph]
3,12500,C=CCOC1N(C(=O)NCc2ccc(-c3ccccc3)cc2)C(=O)C1(CC)CC (stereo not drawn) [Table III: O-(allyl); CH2 Ph-4-Ph]
4,116,CCC1(CC)C(=O)N(C(=O)NCc2ccccc2)C1Sc1nc[nH]n1 (stereo not drawn)
5,69,CCC1(CC)C(=O)N(C(=O)NCc2ccccc2)C1n1cnc2ccccc21 (stereo not drawn) [Table III: 1-benzimidazolyl; CH2 Ph]

# Same assay, conditions: pH 7.5, Table IV, (per mole per second); read-out: kobs/I, second order rate constant of inactivation of the enzyme
row,kinact/KI [M⁻¹ s⁻¹],Compound
1,14300,CCOC(=O)c1ccc(COC(=O)N2C(=O)C(CC)(CC)C2Oc2ccc(C(=O)O)cc2)cc1 (stereo not drawn)

# Same assay, conditions: pH 7.5, Table V, (per mole per second); read-out: kobs/I, second order rate constant of inactivation of the enzyme
row,kinact/KI [M⁻¹ s⁻¹],Compound
1,6090,CCC1(CC)C(=O)N(C(=O)N[C@H](COC)c2ccccc2)[C@H]1Oc1ccc(C(=O)O)cc1 [Table V: 4-COOH; CH2 OMe; H]
2,120000,CCC[C@@H](NC(=O)N1C(=O)C(CC)(CC)[C@@H]1Oc1ccc(C(=O)O)cc1)c1ccccc1 [Table V: 4-COOH; nPr; H]
3,47000,CCC1(CC)C(=O)N(C(=O)N[C@H](C)c2ccc(C)cc2)[C@H]1Oc1ccc(C(=O)O)cc1 [Table V: 4-COOH; Me; 4-Me]

# Same assay, conditions: pH 7.5, Table VI, (per mole per second); read-out: kobs/I, second order rate constant of inactivation of the enzyme
row,kinact/KI [M⁻¹ s⁻¹],Compound
1,37100,CCC1(CC)C(=O)N(C(=O)N[C@H](C)c2ccccc2)[C@H]1Oc1ccc(C(=O)CCC(=O)O)cc1 [Table VI: 4-CO(CH2)2COOH; Me; H]
2,6980,CCC1(CC)C(=O)N(C(=O)N[C@@H](COC)c2ccccc2)[C@H]1Oc1ccc(C(=O)O)cc1 [Table VI: 4-COOH; CH2 OMe(R); H]
3,389000,"CCC[C@@H](NC(=O)N1C(=O)C(CC)(CC)[C@@H]1Oc1ccc(C(=O)O)cc1)c1ccc(C)cc1 [Table VI: 4-COOH; nPr; 4-Me, (4S)-3,3-diethyl-1-[(R)-α-n-propyl-(4-methyl)-benzylaminocarbonyl]-4-[(4-carboxy)phenoxy]azetidin-2-one]"
4,5880,CCC1(CC)C(=O)N(C(=O)N[C@H](C)c2ccccc2)[C@H]1Oc1cccc(CC(=O)O)c1 [Table VI: 3-CH2 COOH; Me; H]
5,26400,CC[C@@H](NC(=O)N1C(=O)C(CC)(CC)[C@@H]1Oc1ccc(C(=O)O)cc1)c1ccc(-c2ccccc2)cc1 [Table VI: 4-COOH; Et; 4-Ph]
6,81000,CC[C@@H](NC(=O)N1C(=O)C(CC)(CC)[C@@H]1Oc1cccc(CC(=O)O)c1)c1ccccc1 [Table VI: 3-CH2 COOH; Et; H]
7,125000,CC[C@@H](NC(=O)N1C(=O)C(CC)(CC)[C@@H]1Oc1ccc(C(=O)O)c(O)c1)c1ccccc1 [Table VI: 3-OH-4-COOH; Et; H]

# Further lines, the compound ahead of its results:
row,Compound,kinact/KI [M⁻¹ s⁻¹]
1,"CCC[C@@H](NC(=O)N1C(=O)C(CC)(CC)[C@@H]1Oc1ccc(CC(=O)O)c(Cl)c1)c1ccc(C)cc1 [Table VI: 3-Cl,4-CH2 COOH; nPr; 4-Me, (4S)-3,3-Diethyl-1-[(R)-α-n-propyl-(4-methyl)benzylaminocarbonyl]-4-[(4-carboxymethyl-3-chloro)phenoxy]azetidin-2-one]",589000
2,"CCC[C@@H](NC(=O)N1C(=O)C(CC)(CC)[C@@H]1Oc1ccc(C(=O)O)c(F)c1)c1ccc(C)cc1 [Table VI: 3-F,4-COOH; nPr; 4-Me, (4S)-3,3-Diethyl-1-[(R)-α-n-propyl-(4-methyl)benzylaminocarbonyl]-4-[(4-carboxy-3-fluoro)phenoxy]-azetidin-2-one]",464000
3,"C=CC[C@@H](NC(=O)N1C(=O)C(CC)(CC)[C@@H]1Oc1ccc(CC(=O)O)cc1)c1ccc(C)cc1 [Table VI: 4-CH2 COOH; allyl; 4-Me, (4S)-3,3-diethyl-1-[(R)-α-allyl-(4-methyl)benzyl-aminocarbonyl]-4-[(4-carboxymethyl)phenoxy]azetidin-2-one]",664000

# Same assay, conditions: pH 7.5, read-out: kobs/I, second order rate constant of inactivation of the enzyme
row,Compound,kinact/KI [M⁻¹ s⁻¹]
1,CC[C@H]1C(=O)N(C(C)=O)[C@@H]1Oc1ccc(C(=O)O)cc1 (relative stereo),8730
2,CCCC1(C)C(=O)N(C(=O)NCc2ccccc2)C1Oc1ccc(C(=O)O)cc1 (stereo not drawn),1900
3,CCC1C(=O)N(C(=O)c2ccccc2)C1C(C)=O (stereo not drawn) [Table I: H; C2 H5 (trans); COCH3; COPh],76600
4,CCOC(=O)[C@@H]1[C@@H](CC)C(=O)N1S(=O)(=O)c1ccc([N+](=O)[O-])cc1 (relative stereo) [4-Carboethoxy-3-ethyl-1-(p-nitrobenzenesulfonyl)-azetidin-2-one],39300
